In US20240252454A1, “COMPOSITION COMPRISING AN INHIBITOR OF MITOCHONDRIAL TRANSCRIPTION” (LEAD DISCOVERY CENTER GMBH, priority 2021, published 2024):

Columns and labels:
Experiment in all cases: SRB assay, IMT combined with inhibitor
Assay type in all cases: cell-based
A549 = A549 (lung); concentration series of the labelled inhibitor + fixed concentration of IMT (3S)-1-[(2R)-2-[4-(2-chloro-4-fluoro-phenyl)-2-oxo-chromen-7-yl]oxypropanoyl]piperidine-3-carboxylic acid (Table 3: 40 nM, 120 h); negative=synergistic, positive=antagonistic
Procedure: (§1) Solforhodamine B assay is carried out as described in Voigt W. (2005) Sulforhodamine B Assay and Chemosensitivity. (Methods in Molecular Medicine™, vol 110. Humana Press. https://doi.org/10.1385/1-59259-869-2:039).
(§2) The determination of changes in cellular biomass was based on the Solforhodamine B assay format, carried out as described in Voigt W. (2005) Sulforhodamine B Assay and Chemosensitivity. (Methods in Molecular Medicine™, vol 110. Humana Press. https://doi.org/10.1385/1-59259-869-2:039).
(§3) All in vitro cell culture experiments were carried out under near physiological glucose concentrations (5 mM) in at least two independent replicates.
(§4) First, 30 different cell lines from 14 different tissue types were tested in the SRB assay format. The cells were examined individually for changes in growth over a period of 120 hours with dilution series of both inhibitors. Untreated cells were used as a negative control group. Subsequently, a dilution series of the respective MAPK signalling pathway SOCs was treated in combination with a fixed concentration of 40 nM (3S)-1-[(2R)-2-[4-(2-chloro-4-fluoro-phenyl)-2-oxo-chromen-7-yl]oxypropanoyl]piperidine-3-carboxylic acid.

A673 = A673 (muscle); concentration series of the labelled inhibitor + fixed concentration of IMT (3S)-1-[(2R)-2-[4-(2-chloro-4-fluoro-phenyl)-2-oxo-chromen-7-yl]oxypropanoyl]piperidine-3-carboxylic acid (Table 3: 40 nM, 120 h); negative=synergistic, positive=antagonistic
Procedure: as §1, §2, §3, §4

COLO205 = COLO205 (colon); concentration series of the labelled inhibitor + fixed concentration of IMT (3S)-1-[(2R)-2-[4-(2-chloro-4-fluoro-phenyl)-2-oxo-chromen-7-yl]oxypropanoyl]piperidine-3-carboxylic acid (Table 3: 40 nM, 120 h); negative=synergistic, positive=antagonistic
Procedure: as §1, §2, §3, §4

HCT15 = HCT15 (colon); concentration series of the labelled inhibitor + fixed concentration of IMT (3S)-1-[(2R)-2-[4-(2-chloro-4-fluoro-phenyl)-2-oxo-chromen-7-yl]oxypropanoyl]piperidine-3-carboxylic acid (Table 3: 40 nM, 120 h); negative=synergistic, positive=antagonistic
Procedure: as §1, §2, §3, §4

HT1080 = HT1080 (connective tissue); concentration series of the labelled inhibitor + fixed concentration of IMT (3S)-1-[(2R)-2-[4-(2-chloro-4-fluoro-phenyl)-2-oxo-chromen-7-yl]oxypropanoyl]piperidine-3-carboxylic acid (Table 3: 40 nM, 120 h); negative=synergistic, positive=antagonistic
Procedure: as §1, §2, §3, §4

IMR90 = IMR90 (lung); concentration series of the labelled inhibitor + fixed concentration of IMT (3S)-1-[(2R)-2-[4-(2-chloro-4-fluoro-phenyl)-2-oxo-chromen-7-yl]oxypropanoyl]piperidine-3-carboxylic acid (Table 3: 40 nM, 120 h); negative=synergistic, positive=antagonistic
Procedure: as §1, §2, §3, §4

JAR = JAR (placenta); concentration series of the labelled inhibitor + fixed concentration of IMT (3S)-1-[(2R)-2-[4-(2-chloro-4-fluoro-phenyl)-2-oxo-chromen-7-yl]oxypropanoyl]piperidine-3-carboxylic acid (Table 3: 40 nM, 120 h); negative=synergistic, positive=antagonistic
Procedure: as §1, §2, §3, §4

MHHES1 = MHHES1 (bone); concentration series of the labelled inhibitor + fixed concentration of IMT (3S)-1-[(2R)-2-[4-(2-chloro-4-fluoro-phenyl)-2-oxo-chromen-7-yl]oxypropanoyl]piperidine-3-carboxylic acid (Table 3: 40 nM, 120 h); negative=synergistic, positive=antagonistic
Procedure: as §1, §2, §3, §4

MV4-11 = MV4-11 (hematological); concentration series of the labelled inhibitor + fixed concentration of IMT (3S)-1-[(2R)-2-[4-(2-chloro-4-fluoro-phenyl)-2-oxo-chromen-7-yl]oxypropanoyl]piperidine-3-carboxylic acid (Table 3: 40 nM, 120 h); negative=synergistic, positive=antagonistic
Procedure: as §1, §2, §3, §4

PANC1 = PANC1 (pancreas); concentration series of the labelled inhibitor + fixed concentration of IMT (3S)-1-[(2R)-2-[4-(2-chloro-4-fluoro-phenyl)-2-oxo-chromen-7-yl]oxypropanoyl]piperidine-3-carboxylic acid (Table 3: 40 nM, 120 h); negative=synergistic, positive=antagonistic
Procedure: as §1, §2, §3, §4

SKMEL28 = SKMEL28 (skin); concentration series of the labelled inhibitor + fixed concentration of IMT (3S)-1-[(2R)-2-[4-(2-chloro-4-fluoro-phenyl)-2-oxo-chromen-7-yl]oxypropanoyl]piperidine-3-carboxylic acid (Table 3: 40 nM, 120 h); negative=synergistic, positive=antagonistic
Procedure: as §1, §2, §3, §4

SKOV3 = SKOV3 (ovary); concentration series of the labelled inhibitor + fixed concentration of IMT (3S)-1-[(2R)-2-[4-(2-chloro-4-fluoro-phenyl)-2-oxo-chromen-7-yl]oxypropanoyl]piperidine-3-carboxylic acid (Table 3: 40 nM, 120 h); negative=synergistic, positive=antagonistic
Procedure: as §1, §2, §3, §4

U2OS = U2OS (bone); concentration series of the labelled inhibitor + fixed concentration of IMT (3S)-1-[(2R)-2-[4-(2-chloro-4-fluoro-phenyl)-2-oxo-chromen-7-yl]oxypropanoyl]piperidine-3-carboxylic acid (Table 3: 40 nM, 120 h); negative=synergistic, positive=antagonistic
Procedure: as §1, §2, §3, §4

A2780 = A2780 (ovary); concentration series of the labelled inhibitor + fixed concentration of IMT (3S)-1-[(2R)-2-[4-(2-chloro-4-fluoro-phenyl)-2-oxo-chromen-7-yl]oxypropanoyl]piperidine-3-carboxylic acid (Table 3: 40 nM, 120 h); negative=synergistic, positive=antagonistic
Procedure: In two studies, the ovarian cell line A2780 was tested for 72 hours with the IMT N,N-dimethyl-2-[4-(o-tolyl)-2-oxo-chromen-7-yl]oxy-propanamide (30 μM-15 nM) and the MEK inhibitor Selumetinib (30 μM-10 nM), or with the IMT 1-[2-[4-(2-chlorophenyl)-2-oxo-chromen-7-yl]oxypropanoyl]piperidine-3-sulfonamide (30 μM-15 nM) and the MEK inhibitor PD318088 (30 μM-10 nM).
as §1, §2, §3, §4

| Compound | difference between the calculated combinatorial index (BLISS) and the observed combinatorial effect (A549) | difference between the calculated combinatorial index (BLISS) and the observed combinatorial effect (A673) | difference between the calculated combinatorial index (BLISS) and the observed combinatorial effect (COLO205) | difference between the calculated combinatorial index (BLISS) and the observed combinatorial effect (HCT15) | difference between the calculated combinatorial index (BLISS) and the observed combinatorial effect (HT1080) | difference between the calculated combinatorial index (BLISS) and the observed combinatorial effect (IMR90) | difference between the calculated combinatorial index (BLISS) and the observed combinatorial effect (JAR) | difference between the calculated combinatorial index (BLISS) and the observed combinatorial effect (MHHES1) | difference between the calculated combinatorial index (BLISS) and the observed combinatorial effect (MV4-11) | difference between the calculated combinatorial index (BLISS) and the observed combinatorial effect (PANC1) | difference between the calculated combinatorial index (BLISS) and the observed combinatorial effect (SKMEL28) | difference between the calculated combinatorial index (BLISS) and the observed combinatorial effect (SKOV3) | difference between the calculated combinatorial index (BLISS) and the observed combinatorial effect (U2OS) | difference between the calculated combinatorial index (BLISS) and the observed combinatorial effect (A2780) |
| --- | --- | --- | --- | --- | --- | --- | --- | --- | --- | --- | --- | --- | --- | --- |
| O=C(c1ccc(F)c(F)c1Nc1ccc(I)cc1F)N1CC(O)([C@@H]2CCCCN2)C1 [Cobimetinib] | −0.0490 | 0.0185 | 0.0185 | 0.0539 | −0.0482 | −0.0073 | 0.0139 | −0.0055 | 0.0051 | 0.0747 | −0.0040 | 0.0499 | −0.0663 | −0.0105 |
| CC(C)(C)c1nc(-c2cccc(NS(=O)(=O)c3c(F)cccc3F)c2F)c(-c2ccnc(N)n2)s1 [Dabrafenib] | −0.0892 | −0.0146 | −0.0114 | 0.0551 | −0.1475 | −0.0104 | 0.0431 | −0.0230 | 0.0205 | 0.0029 | 0.0194 | 0.0282 | −0.0418 | 0.0281 |
| O=C(NOC[C@H](O)CO)c1ccc(F)c(F)c1Nc1ccc(I)cc1F [PD 0325901, (R)—N-(2,3-dihydroxypropoxy)-3,4-difluoro-2-((2-fluoro-4-iodophenyl)amino)benzamide] | −0.0245 | 0.0281 | 0.0261 | 0.1249 | 0.0433 | 0.0387 | 0.0256 | 0.0437 | 0.0637 | 0.1000 | 0.0303 | −0.0555 | 0.0014 | −0.0318 |
